Drawing on ChEMBL document CHEMBL1201862, “PubChem BioAssay data set” (2004), this text covers IC50, AC50 and EC50 for 16 compounds.

In data set [1] the target is T1, Carboxy-terminal domain RNA polymerase II polypeptide A small phosphatase 1 (Homo sapiens, UniProt Q9GZU7).
T1 sequence (Q9GZU7 whole entry): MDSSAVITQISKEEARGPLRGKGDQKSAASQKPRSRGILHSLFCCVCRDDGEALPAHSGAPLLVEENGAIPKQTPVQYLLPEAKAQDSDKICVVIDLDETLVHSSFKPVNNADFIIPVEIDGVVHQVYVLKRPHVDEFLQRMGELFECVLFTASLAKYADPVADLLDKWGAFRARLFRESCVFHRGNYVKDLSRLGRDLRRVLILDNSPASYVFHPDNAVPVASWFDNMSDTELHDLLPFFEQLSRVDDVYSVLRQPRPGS
Put plainly: CTDSP1 inhibitors, concentration-response, biochemical, absorbance readout, ultra-high-throughput screen actives (AID 540297). Format: functional.

Another data set has as its target T2, Caspase-6 (Homo sapiens, UniProt P55212).
T2 sequence (P55212 whole entry): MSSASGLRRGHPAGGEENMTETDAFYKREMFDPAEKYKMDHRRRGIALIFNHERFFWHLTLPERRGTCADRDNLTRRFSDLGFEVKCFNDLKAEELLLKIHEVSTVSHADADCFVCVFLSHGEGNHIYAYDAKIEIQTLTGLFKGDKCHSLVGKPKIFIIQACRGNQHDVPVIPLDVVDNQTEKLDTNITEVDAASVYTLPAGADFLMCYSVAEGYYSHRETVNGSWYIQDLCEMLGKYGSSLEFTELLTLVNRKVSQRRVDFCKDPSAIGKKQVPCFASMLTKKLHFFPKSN
Put plainly: inhibition of CASP6 peptide cleavage – biochemical, VEID-R110 fluorescence, cherry-pick, dose response (AID 720632).

For data set [2], the target named is Glyceraldehyde-3-phosphate dehydrogenase (Homo sapiens, UniProt P04406).
Glyceraldehyde-3-phosphate dehydrogenase, sequence (P04406 whole entry): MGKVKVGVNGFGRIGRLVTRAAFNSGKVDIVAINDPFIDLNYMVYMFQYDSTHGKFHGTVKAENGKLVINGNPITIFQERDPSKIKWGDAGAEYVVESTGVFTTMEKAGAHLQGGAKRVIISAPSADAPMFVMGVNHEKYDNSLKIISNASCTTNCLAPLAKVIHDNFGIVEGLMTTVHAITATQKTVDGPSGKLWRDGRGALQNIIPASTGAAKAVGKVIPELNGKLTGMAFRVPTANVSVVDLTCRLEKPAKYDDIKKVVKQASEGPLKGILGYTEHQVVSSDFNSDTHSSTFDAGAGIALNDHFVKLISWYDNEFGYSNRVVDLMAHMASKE
The next data set deals with Cytochrome P450 2C19 (Homo sapiens, UniProt P33261). Put plainly: Cytochrome panel assay with activity outcomes. Panel member name: p450-cyp2c19 Compounds with AC50 equal or less than 10 uM are considered active. Format: functional.
Cytochrome P450 2C19, sequence (P33261 whole entry): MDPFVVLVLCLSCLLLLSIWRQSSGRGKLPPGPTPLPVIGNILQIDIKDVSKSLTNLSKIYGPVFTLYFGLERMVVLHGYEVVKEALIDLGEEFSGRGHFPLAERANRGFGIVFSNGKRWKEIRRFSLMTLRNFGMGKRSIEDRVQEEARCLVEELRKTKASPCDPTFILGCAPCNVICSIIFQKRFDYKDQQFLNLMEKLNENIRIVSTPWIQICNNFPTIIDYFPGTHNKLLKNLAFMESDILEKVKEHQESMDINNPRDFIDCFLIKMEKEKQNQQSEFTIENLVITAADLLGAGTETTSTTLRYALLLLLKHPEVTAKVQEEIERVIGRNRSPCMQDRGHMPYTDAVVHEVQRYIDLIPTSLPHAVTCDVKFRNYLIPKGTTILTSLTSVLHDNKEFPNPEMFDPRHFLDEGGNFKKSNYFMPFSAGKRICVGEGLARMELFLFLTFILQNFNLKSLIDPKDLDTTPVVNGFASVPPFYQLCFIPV
A further data set addresses Cytochrome P450 2C9 (Homo sapiens, UniProt P11712).
The target in data set [3] is T3, Replicative DNA helicase DnaB (Mycobacterium tuberculosis, UniProt P9WMR3).
T3 sequence (P9WMR3 whole entry): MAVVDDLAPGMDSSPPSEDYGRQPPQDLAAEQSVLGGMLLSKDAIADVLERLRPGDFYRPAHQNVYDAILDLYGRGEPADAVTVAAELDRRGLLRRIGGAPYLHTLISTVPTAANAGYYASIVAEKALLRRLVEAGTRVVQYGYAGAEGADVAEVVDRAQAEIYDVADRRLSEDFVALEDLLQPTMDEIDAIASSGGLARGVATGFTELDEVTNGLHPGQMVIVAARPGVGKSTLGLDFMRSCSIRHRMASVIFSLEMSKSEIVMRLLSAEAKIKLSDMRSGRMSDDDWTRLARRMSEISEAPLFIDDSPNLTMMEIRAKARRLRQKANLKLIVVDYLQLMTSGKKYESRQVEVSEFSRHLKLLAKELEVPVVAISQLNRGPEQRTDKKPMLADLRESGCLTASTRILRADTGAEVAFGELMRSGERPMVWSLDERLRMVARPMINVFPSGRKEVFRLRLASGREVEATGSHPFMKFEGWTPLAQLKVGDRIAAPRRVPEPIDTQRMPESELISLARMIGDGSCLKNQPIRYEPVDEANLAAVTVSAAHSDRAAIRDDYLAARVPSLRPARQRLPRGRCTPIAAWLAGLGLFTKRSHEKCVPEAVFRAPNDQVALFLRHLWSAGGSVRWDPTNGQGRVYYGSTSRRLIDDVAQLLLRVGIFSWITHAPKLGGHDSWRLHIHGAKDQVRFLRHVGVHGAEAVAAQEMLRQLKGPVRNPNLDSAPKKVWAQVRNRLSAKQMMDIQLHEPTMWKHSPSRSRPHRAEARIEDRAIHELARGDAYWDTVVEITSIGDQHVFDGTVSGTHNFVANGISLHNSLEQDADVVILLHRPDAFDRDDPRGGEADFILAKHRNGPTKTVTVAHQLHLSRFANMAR
Put plainly: DnaB intein splicing inhibitors, dose response, biochemical, cell-free fluorescence (AID 449749). The data set is classed as functional.

The target in a further data set is T4, Protein RecA (Mycobacterium tuberculosis, UniProt P9WHJ3).
T4 sequence (P9WHJ3 whole entry): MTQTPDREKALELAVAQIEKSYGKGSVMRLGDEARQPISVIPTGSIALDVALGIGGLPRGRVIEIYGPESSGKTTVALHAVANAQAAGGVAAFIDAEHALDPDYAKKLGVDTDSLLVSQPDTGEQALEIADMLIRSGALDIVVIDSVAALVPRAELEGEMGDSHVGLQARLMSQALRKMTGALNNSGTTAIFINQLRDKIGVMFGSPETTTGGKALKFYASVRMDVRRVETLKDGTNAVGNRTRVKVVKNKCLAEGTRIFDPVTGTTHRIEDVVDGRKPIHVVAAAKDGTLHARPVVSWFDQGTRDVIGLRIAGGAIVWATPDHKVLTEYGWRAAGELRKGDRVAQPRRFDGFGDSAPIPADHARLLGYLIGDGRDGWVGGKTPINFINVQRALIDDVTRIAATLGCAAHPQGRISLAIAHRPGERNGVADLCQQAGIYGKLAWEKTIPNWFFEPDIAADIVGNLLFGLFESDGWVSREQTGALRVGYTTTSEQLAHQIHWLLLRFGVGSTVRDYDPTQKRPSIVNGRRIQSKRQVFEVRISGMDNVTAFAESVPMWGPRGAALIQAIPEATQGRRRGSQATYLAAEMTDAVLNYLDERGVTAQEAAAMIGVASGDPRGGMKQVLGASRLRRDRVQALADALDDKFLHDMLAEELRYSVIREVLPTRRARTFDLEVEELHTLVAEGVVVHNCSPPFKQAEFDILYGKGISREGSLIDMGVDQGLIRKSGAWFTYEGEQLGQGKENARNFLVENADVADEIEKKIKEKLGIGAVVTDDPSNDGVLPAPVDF
In words: Fluorescence Cell-Free Homogeneous Dose Retest to Identify Inhibitors of RecA-Intein Splicing Activity. [Related pubchem assays (depositor defined):AID2097, AID2223, AID489010, AID492950]. Format: functional.

Data set [4] addresses T5, Polyadenylate-binding protein 1 (Homo sapiens, UniProt P11940). Put plainly: MLLE binding blockers, Cy5 peptide tracer – biochemical, fluorescence polarization, Cy5-PAM2 peptide, secondary, miRNA deadenylation inhibitor project, dose response (AID 602260). The note with it: read-out: IC50_Mean. Format: functional. (Polarisation of emitted light reports the rotation of a fluorescent probe.)

The target in data set [5] is T5, Polyadenylate-binding protein 1. Put plainly: MLLE domain peptide-binding blockers, IC50 – biochemical, fluorescence polarization, FITC-PAM2 peptide, dose response (AID 602259). Format: functional. The note with it: read-out: IC50_Mean.
The nature of data set [6]: blockers of HIV-1 envelope-mediated cell-cell fusion – cherry-pick, dose response (AID 652057). Format: functional, cell-based.
A short description of data set [7]: blockers of HIV-1 ZM109 envelope-driven cell-cell fusion – HeLa effector, CEM target cells, luciferase, cherry-pick, dose response (AID 652058).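 Further: luciferase signal from HIV-1 Env mediated cell-cell fusion of effector and target cells.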 Format: functional, cell-based.
The nature of data set [8]: HIV-1 AD8 envelope cell-cell fusion blockers – cherry-pick, dose response (AID 652062).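 Further: luciferase signal from cell-cell fusion driven by HIV-1 clade B AD8 Env; potency is for inhibitors of fusion seen as a drop in luminescence.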 Format: functional, cell-based.
Data set [9] has as its target DNA dC->dU-editing enzyme APOBEC-3G (Homo sapiens, UniProt Q9HC16). In words: Dose Response confirmation of small molecule APOBEC3G DNA Deaminase Inhibitors via a fluorescence-based single-stranded DNA deaminase assay. [Related pubchem assays (depositor defined):AID493012, AID493028]. The data set is classed as functional.
A short description of data set [10]: Luminescence Cell-Based Dose Confirmation HTS to Identify Activators of 5'UTR Stem-Loop Driven Alpha-Synuclein mRNA Translation in H4 Neuroglioblastoma Cells. [Related pubchem assays: 1829 (Project Summary), 1814 (Primary HTS)]. Format: functional.
A short description of data set [11]: Luminescence Cell-Based Dose Response HTS to Identify Activators of Luciferase Translation or Activity in H4 […] Cells. [Related pubchem assays: 1829 (Project Summary), 1814 (Primary HTS)]. The data set is classed as functional.
Another data set has as its system H4. In words: Luminescence Cell-Based Dose Response HTS to Identify Activators of 5'UTR Stem-Loop Driven Prion Protein mRNA Translation in H4 Neuroglioblastoma Cells. [Related pubchem assays: 1829 (Project Summary), 1814 (Primary HTS)]. The data set is classed as functional. The note with it: Homo sapiens.
Data set [12] has as its target T6, Heat shock factor protein 1 (Mus musculus, UniProt P38532).
T6 sequence (P38532 whole entry): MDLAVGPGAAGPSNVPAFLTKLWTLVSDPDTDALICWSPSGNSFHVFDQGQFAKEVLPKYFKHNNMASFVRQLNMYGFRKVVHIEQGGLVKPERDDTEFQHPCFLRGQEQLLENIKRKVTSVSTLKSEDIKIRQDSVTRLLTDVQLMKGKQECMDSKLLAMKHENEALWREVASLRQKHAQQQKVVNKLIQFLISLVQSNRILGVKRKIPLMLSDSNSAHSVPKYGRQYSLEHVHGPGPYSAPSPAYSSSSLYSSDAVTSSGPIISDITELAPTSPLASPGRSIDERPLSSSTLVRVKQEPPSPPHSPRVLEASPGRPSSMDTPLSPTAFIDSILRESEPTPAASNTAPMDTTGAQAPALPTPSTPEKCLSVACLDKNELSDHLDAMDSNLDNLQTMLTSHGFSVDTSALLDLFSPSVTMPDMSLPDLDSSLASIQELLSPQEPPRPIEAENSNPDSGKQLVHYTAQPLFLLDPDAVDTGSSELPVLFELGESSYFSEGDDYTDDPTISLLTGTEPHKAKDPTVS
In words: decrease of HSF1-responsive luciferase luminescence – cell-based, NIH3T3, dose retest, confirmation (AID 2382).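 Further: NIH3T3 fibroblasts with HSF1-driven luciferase reporter stressed by proteasome inhibitor MG132; luminescence from HSF1-driven luciferase expression after 8 hours of MG132 stress.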 The data set is classed as functional.

The next data set has as its target Cytochrome P450 3A4 (Homo sapiens, UniProt P08684).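 Further: CYP3A4 tested as one member of a cytochrome P450 panel screen.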

Each structure is given as a SMILES string. Activity calls are given as the source filed them.

Cytochrome P450 2C9, sequence (P11712 whole entry): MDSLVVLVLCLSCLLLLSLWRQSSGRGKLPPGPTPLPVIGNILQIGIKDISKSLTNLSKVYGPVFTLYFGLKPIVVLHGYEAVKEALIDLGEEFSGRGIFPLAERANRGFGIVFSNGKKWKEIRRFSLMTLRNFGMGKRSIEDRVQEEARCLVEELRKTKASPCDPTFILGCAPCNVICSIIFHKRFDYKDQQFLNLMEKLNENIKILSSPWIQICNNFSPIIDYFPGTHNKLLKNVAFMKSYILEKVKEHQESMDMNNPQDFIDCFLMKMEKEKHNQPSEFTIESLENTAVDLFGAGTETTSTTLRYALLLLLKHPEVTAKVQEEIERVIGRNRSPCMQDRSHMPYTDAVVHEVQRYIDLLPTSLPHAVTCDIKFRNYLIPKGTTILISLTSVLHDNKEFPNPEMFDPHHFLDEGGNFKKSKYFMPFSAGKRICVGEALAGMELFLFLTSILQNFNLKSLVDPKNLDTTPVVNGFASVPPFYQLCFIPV
DNA dC->dU-editing enzyme APOBEC-3G, sequence (Q9HC16 whole entry): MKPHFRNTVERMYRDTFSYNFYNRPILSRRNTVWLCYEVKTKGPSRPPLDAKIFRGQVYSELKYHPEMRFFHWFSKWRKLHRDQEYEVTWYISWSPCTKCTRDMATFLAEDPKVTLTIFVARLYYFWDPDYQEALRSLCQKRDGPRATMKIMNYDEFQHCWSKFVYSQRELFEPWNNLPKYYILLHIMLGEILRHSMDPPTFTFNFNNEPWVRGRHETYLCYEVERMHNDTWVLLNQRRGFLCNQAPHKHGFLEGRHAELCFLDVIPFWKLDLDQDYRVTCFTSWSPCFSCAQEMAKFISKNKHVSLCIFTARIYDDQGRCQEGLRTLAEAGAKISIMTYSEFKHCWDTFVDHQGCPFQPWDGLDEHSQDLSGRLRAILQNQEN
T5 sequence (P11940 whole entry): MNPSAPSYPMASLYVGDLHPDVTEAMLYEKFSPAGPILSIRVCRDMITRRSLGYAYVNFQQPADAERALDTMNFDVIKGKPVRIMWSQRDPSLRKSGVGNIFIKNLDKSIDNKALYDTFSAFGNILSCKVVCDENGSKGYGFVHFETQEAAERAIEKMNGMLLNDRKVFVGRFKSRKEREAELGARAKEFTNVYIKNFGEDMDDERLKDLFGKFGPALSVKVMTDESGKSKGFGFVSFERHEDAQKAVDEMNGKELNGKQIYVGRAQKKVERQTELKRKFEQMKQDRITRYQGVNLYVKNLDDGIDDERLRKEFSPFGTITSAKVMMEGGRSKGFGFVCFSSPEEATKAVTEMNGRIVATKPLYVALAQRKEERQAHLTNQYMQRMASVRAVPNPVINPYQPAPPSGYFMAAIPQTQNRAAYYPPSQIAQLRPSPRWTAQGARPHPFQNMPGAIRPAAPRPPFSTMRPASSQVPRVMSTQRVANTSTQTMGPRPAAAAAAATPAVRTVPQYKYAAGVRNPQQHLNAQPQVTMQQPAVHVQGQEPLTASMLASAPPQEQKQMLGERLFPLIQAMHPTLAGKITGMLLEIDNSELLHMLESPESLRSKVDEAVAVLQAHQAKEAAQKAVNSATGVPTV
Cytochrome P450 3A4, sequence (P08684 whole entry): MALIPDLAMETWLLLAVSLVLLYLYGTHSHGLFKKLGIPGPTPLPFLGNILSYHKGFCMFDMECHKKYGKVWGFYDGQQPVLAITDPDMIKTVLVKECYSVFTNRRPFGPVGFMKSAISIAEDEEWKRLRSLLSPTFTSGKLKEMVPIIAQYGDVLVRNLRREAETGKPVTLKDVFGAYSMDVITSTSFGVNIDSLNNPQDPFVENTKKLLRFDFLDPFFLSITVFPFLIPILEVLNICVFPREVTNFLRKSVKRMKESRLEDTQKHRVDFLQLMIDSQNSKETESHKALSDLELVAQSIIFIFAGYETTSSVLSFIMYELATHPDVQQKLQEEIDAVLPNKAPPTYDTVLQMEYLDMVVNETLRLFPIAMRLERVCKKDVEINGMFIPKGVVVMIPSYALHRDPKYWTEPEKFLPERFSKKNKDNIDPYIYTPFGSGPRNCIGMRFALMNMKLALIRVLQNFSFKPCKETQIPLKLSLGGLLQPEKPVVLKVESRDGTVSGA

The term AC50 denotes the midpoint of the concentration-response curve, whichever way the signal moves. For `Cc1ccc(S(=O)(=O)Nc2csc(C)c2C(=O)O)cc1`, in [1], the IC50 is 3.94 µM (active). Further, on Caspase-6, the half-maximal activity concentration (AC50) is 4.99 µM (active).

`O=C(O)/C(=C\c1cccc([N+](=O)[O-])c1)c1ccc(S(=O)(=O)N2CCCCC2)s1`: the IC50 in data set [1] was 9.53 µM (active). Further, on Caspase-6, the AC50 was 13.9 µM (active).

As for `O=S(=O)(Nc1ccccc1Cl)c1cccc2nsnc12`, the IC50 in [1] is 11.2 µM (active). Further, the AC50 on Caspase-6 is 25.9 µM (active).

Regarding `O=C1C(Cl)=C(N2CCN(Cc3ccc4c(c3)OCO4)CC2)C(=O)N1c1ccc(C(F)(F)F)cc1`, the IC50 in data set [2] was > 50 µM (inconclusive).

Take `Cn1cnc(CCN)c1` [N-METHYLHISTAMINE]: the AC50 result on Cytochrome P450 2C19 and on Cytochrome P450 2C9 was “inconclusive” throughout.

Broadly, the EC50 is the midpoint of the concentration-response curve. For `CC(=O)c1c(Cl)nc2cccc3c2c1-c1ccccc1C3=O`, in data set [3], the AC50 was > 380 µM (inactive). Further, at Protein RecA, the EC50 was 0.297 µM (inconclusive). For the same compound, the IC50 in [4] is > 66 µM (inactive); in [5] it was 55.6 µM (inactive).

On to `CO[C@H]1CN(C)C(=O)c2ccc(NS(=O)(=O)c3cccc(Cl)c3)cc2OC[C@@H](C)NC[C@H]1C`, for which the AC50 on Caspase-6 was 19.7 µM (active).

Turning to `C[C@H](CO)N1C[C@H](C)[C@H](CN(C)S(=O)(=O)c2ccc(F)cc2)Oc2cc(Br)ccc2S1(=O)=O`, the AC50 in [6] is 1.5 µM (active); in [7] it was 1.13 µM (active); in [8] it was 4.74 µM (active).

For `Cc1ccc(S(=O)(=O)N2CCN(C(=O)C3COc4ccccc4O3)CC2)cc1C` (centres undefined), at Cytochrome P450 2C9, the AC50 entry is on record as “inconclusive”.

With `CC(C)Cn1c(S)nnc1-c1ccc(F)cc1`, the IC50 in data set [9] is 9.54 µM (active).

In the case of `COc1ccccc1C(=O)NC(=S)N1CCCc2ccccc21`, the EC50 in [10] was 29.9 µM (active); in data set [11], 9.63 µM (active); in the data set with H4 it was 31.6 µM (active); in [12], 16.2 µM (active). The AC50 result at Cytochrome P450 2C9 is listed as “inconclusive”.

In the case of `CCCC#Cc1ccc2c(c1)O[C@H](CN(C)S(=O)(=O)c1cccc(F)c1)[C@H](C)CN([C@@H](C)CO)S2(=O)=O`, the AC50 in data set [6] is 25 µM (active); in [7], 15.2 µM (active); in data set [8], 25.9 µM (active).

Turning to `COc1ccc(NC(=S)c2ccc3ccccc3n2)cc1`, in [9], the IC50 was 66.5 µM (active).

In the case of `C=CCc1cccc2cc(C(=O)Nc3cccc(C(=O)O)c3)c(=O)oc12`, in [2], the IC50 is recorded as > 100 µM (not active).

Consider `C[C@@H]1CN([C@@H](C)CO)C(=O)c2cccc(NC(=O)C3CCCCC3)c2O[C@H]1CN(C)Cc1ccccc1`, for which the figures for the AC50 in data set [6], in data set [7] and in data set [8] were 39.6 µM (active), 10.8 µM (active) and 22.1 µM (active), respectively.

Consider `CCCCN1CCC(COC(=O)c2cc(Cl)c(N)c3c2OCCO3)CC1`, for which the figures for the AC50 at Cytochrome P450 3A4 and at Cytochrome P450 2C9 were 3.16 µM (inconclusive) and “inconclusive”, respectively.
